Patent publication US9969989B2, “Carotenoid dioxygenase and methods for the biotechnological production in microorganisms and plants of compounds derived from saffron” (AGENZIA NAZIONALE PER LE NUOVE TECNOLOGIE, L'ENERGIA E LO …, priority 2014, dated 2018)

Experiments:
CCD2 [1] = experiment: In vitro assay with semi-purified extracts of E. coli expressing CCD2, specificity for carotenoids; type: biochemical, Crocus sativus
Description: (§1) RNA isolated from stigmas of saffron was sequenced by means of RNA-Seq 454 Titanium technology as reported in the literature (10) (FIG. 2A). The evolutionary relationships between the gene families CCD1 and CCD4 of saffron, Arabidopsis, rice and Synechocystis, were studied using the Neighbor-Joining method (11) (FIG. 2B), whilst the CCD proteins were modelled using the web server RaptorX (12) (FIG. 2C). The assays in bacteria were obtained by transforming particular strains of E. coli engineered to accumulate lycopene, β-carotene, and zeaxanthin, with the expression vectors pThio-DAN1-CCD2, pThio-DAN1-ZCD and pThio-DAN1 (empty vector, used as control) as indicated in the literature (13) (14) (15) (FIG. 3). The transformation of corn endosperm, in Agrobacterium tumefaciens-mediated manner, was obtained by cloning the coding sequence of CCD2 in the vector pBI121 (16) and by using protocols already present in the literature (17). The strain of E. coli BL21 (p-Gro7) was used to assay the activity in vitro of CCD2: the raw protein extracts were prepared and incubated with the appropriate substrates and extracts as described before (14) (FIG. 4). All the analyses directed to the identification and quantification of the carotenoids and apocarotenoids were performed using a mass spectrometry platform LTQ-Orbitrap coupled with a high-pressure liquid chromatography (HPLC) system and with a diode array detector (DAD) (ThermoFisher Scientific); the chromatographic separation was obtained using a C30 column with inverse phase, whereas for positive ionisation an APCI (Atmospheric Pressure Chemical Ionization) source was selected (18).
Since the strains of genetically modified E. coli can produce only a limited number of different carotenoids, we developed and used an in vitro assay, based on semi-purified extracts of E. coli that expresses CCD2, in order to study the specificity of this enzyme for the various carotenoids. […] 3-OH-β-apo-8′-carotenal, formed from CCD2 on the basis of the zeaxanthin in vitro, is then cleaved from the CCD2, with production of crocetin, signalling that the extracts of E. coli are able to convert the product of CCD2, crocetin dialdehyde, into crocetin.

ZCD [2] = target: T1, ZCD (Crocus sativus, UniProt Q84K96); experiment: Corn endosperm transformed with 35S:ZCD, carotenoids and apocarotenoids by LC-HRMS; type: cell-based; details: for Relative content of carotenoids and apocarotenoids in corn endosperm: 35S: ZCD, peak areas of the ions standardised by the internal standard, mean ± SD of 4 biological repetitions
T1 construct: expressed in transfected cells; host or cells: corn (maize) endosperm, Agrobacterium tumefaciens-mediated transformation
T1 sequence (Q84K96 1-369): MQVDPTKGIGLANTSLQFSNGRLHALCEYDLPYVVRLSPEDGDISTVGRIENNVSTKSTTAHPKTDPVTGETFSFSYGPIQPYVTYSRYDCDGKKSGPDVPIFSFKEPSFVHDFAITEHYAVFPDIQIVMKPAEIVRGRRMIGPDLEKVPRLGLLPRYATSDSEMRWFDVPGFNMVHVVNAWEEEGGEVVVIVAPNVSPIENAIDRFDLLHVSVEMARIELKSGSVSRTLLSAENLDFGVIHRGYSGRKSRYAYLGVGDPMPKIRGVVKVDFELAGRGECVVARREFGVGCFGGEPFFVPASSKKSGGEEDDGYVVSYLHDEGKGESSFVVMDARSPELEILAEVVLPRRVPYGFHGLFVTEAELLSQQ
Description: as §1
The sequences coding CCD2 and ZCD were cloned in the binary vector pBI121 under the control of the established promoter 35S. The vectors thus obtained were used to transform corn endosperm and cells of Arabidopsis thaliana, which contain zeaxanthin. […] Such a conversion is caused by the conversion of crocetin dialdehyde to crocetin in the corn endosperm (Table 1) and in the cells of Arabidopsis thaliana.

ZCD [3] = target: T1, ZCD; experiment: ZCD expressed in E. coli strains that accumulate lycopene, β-carotene or zeaxanthin; type: cell-based; details: E. coli strain accumulating the carotenoid, expression of ZCD
Description: as §1
(§2) The coding sequences of the genes CCD2 and ZCD were cloned in the vector pThio-DAN1, which allows an inducible expression in E. coli induced from arabinose. The recombinant proteins were expressed in three strains of E. coli that accumulate lycopene, β-carotene and zeaxanthin (FIG. 3A) (13) (14). […] A peak with the chromatographic and the m/z ratio (329.1747) typical of crocetin was also discernible.

ZCD [4] = target: T1, ZCD; experiment: In vitro assay with extracts of E. coli expressing ZCD, specificity for carotenoids; type: biochemical
CCD2 [5] = experiment: CCD2 expressed in E. coli strains that accumulate lycopene, β-carotene or zeaxanthin; type: cell-based, Crocus sativus; details: E. coli strain accumulating the carotenoid, expression of CCD2
Description: as §1, §2

| Molecule | Cleavage of the substrate in vitro (CCD2 [1]) | Relative content of carotenoids and apocarotenoids in corn endosperm (ZCD [2]) | Discoloration and cleavage product of the accumulated carotenoid (ZCD [3]) | Discoloration and cleavage product of the accumulated carotenoid (CCD2 [5]) | also measured |
| --- | --- | --- | --- | --- | --- |
| 3-OH-β-apo-8′-carotenal | cleaved | – | – | – | – |
| CC1=C[C@H](O)CC(C)(C)[C@H]1/C=C/C(C)=C/C=C/C(C)=C/C=C/C=C(C)/C=C/C=C(C)/C=C/C1=C(C)C[C@@H](O)CC1(C)C [Lutein] | – | 0.64 ± 0.09 | – | – | – |
| CC1=C(/C=C/C(C)=C/C=C/C(C)=C/C=C/C=C(C)/C=C/C=C(C)/C=C/C2=C(C)C[C@@H](O)CC2(C)C)C(C)(C)C[C@H](O)C1 [Zeaxanthin] | cleaves | 1.73 ± 0.20 | did not produce any discoloration or any cleavage product | clear discoloration | Cleavage of the substrate in vitro (ZCD [4]): does not cleave; Cleavage product of zeaxanthin produced (ZCD [2]; corn endosperm expressing ZCD): No cleavage product |
| CC(C)=CCC/C(C)=C/C=C/C(C)=C/C=C/C(C)=C/C=C/C=C(C)/C=C/C=C(C)/C=C/C=C(\C)CCC=C(C)C [lycopene] | – | – | no discoloration and no cleavage product | no discoloration and no cleavage product | – |
| CC(/C=C/C=C(C)/C=C/[C@@]12O[C@]1(C)C[C@@H](O)CC2(C)C)=C\C=C\C=C(C)\C=C\C=C(C)\C=C\[C@@]12O[C@]1(C)C[C@@H](O)CC2(C)C [violaxanthin] | does not cleave | – | – | – | – |
| CC1=C(/C=C/C(C)=C/C=C/C(C)=C/C=C/C=C(C)/C=C/C=C(\C)C=O)C(C)(C)CCC1 [β-apo-8′-carotenal] | does not cleave | – | – | – | – |
| CC1=C(/C=C/C(C)=C/C=C/C(C)=C/C=C/C=C(C)/C=C/C=C(C)/C=C/C2=C(C)CCCC2(C)C)C(C)(C)CCC1 [β-carotene] | does not cleave | – | no discoloration and no cleavage product | no discoloration and no cleavage product | – |
| CC1=C(/C=C/C(C)=C/C=C/C(C)=C/C=C/C=C(C)/C=C/C=C(C)/C=C/C2=C(C)C[C@@H](O)CC2(C)C)C(C)(C)CCC1 [β-cryptoxanthin] | – | 0.12 ± 0.04 | – | – | – |
